Assays:
[1] = Ratio of drug uptake in frontal lobe to cerebellum in anesthetized cynomolgus monkey after 35 mins postinjection; format: ADME, organism-based, Macaca fascicularis; settings: in vivo
Caudate [2] = experiment: Drug uptake in anesthetized cynomolgus monkey brain caudate after 145 mins postinjection; format: ADME, organism-based, Macaca fascicularis, Caudate nucleus; settings: in vivo
[3] = Drug uptake in anesthetized cynomolgus monkey brain occipital lobe after 195 mins postinjection; format: ADME, organism-based, Macaca fascicularis; settings: in vivo, 3.25 h
[4] = Ratio of drug uptake in putamen to cerebellum in awake rhesus monkey after 105 mins postinjection; format: ADME, organism-based, Macaca mulatta; settings: in vivo, 1.75 h
Medulla [5] = experiment: Drug uptake in anesthetized cynomolgus monkey brain medulla after 205 mins postinjection; format: ADME, organism-based, Macaca fascicularis; settings: in vivo
[6] = Ratio of drug uptake in midbrain to cerebellum in awake rhesus monkey after 7.5 mins postinjection; format: ADME, organism-based, Macaca mulatta; settings: in vivo, 0.125 h
[7] = Drug uptake in anesthetized cynomolgus monkey brain cerebellum after 175 mins postinjection; format: ADME, organism-based, Macaca fascicularis; settings: in vivo
[8] = Ratio of drug uptake in medulla to cerebellum in awake rhesus monkey after 4.5 mins postinjection; format: ADME, organism-based, Macaca mulatta; settings: in vivo, 0.075 h
[9] = Ratio of drug uptake in putamen to cerebellum in anesthetized cynomolgus monkey after 235 mins postinjection; format: ADME, organism-based, Macaca fascicularis; settings: in vivo
[10] = Drug uptake in awake rhesus monkey brain midbrain after 55 mins postinjection; format: ADME, organism-based, Macaca mulatta; settings: in vivo
[11] = Ratio of drug uptake in midbrain to cerebellum in awake rhesus monkey after 85 mins postinjection; format: ADME, organism-based, Macaca mulatta; settings: in vivo
Medulla [12] = experiment: Drug uptake in anesthetized cynomolgus monkey brain medulla after 235 mins postinjection; format: ADME, organism-based, Macaca fascicularis; settings: in vivo
Caudate [13] = experiment: Drug uptake in anesthetized cynomolgus monkey brain caudate after 9.5 mins postinjection; format: ADME, organism-based, Macaca fascicularis, Caudate nucleus; settings: in vivo
Putamen [14] = experiment: Drug uptake in anesthetized cynomolgus monkey brain putamen after 105 mins postinjection; format: ADME, organism-based, Macaca fascicularis; parameters: unit not given here; settings: in vivo, 1.75 h
[15] = Drug uptake in awake rhesus monkey brain medulla after 55 mins postinjection; format: ADME, organism-based, Macaca mulatta; settings: in vivo
[16] = Drug uptake in anesthetized cynomolgus monkey brain frontal lobe after 215 mins postinjection; format: ADME, organism-based, Macaca fascicularis; settings: in vivo
Putamen [17] = experiment: Drug uptake in anesthetized cynomolgus monkey brain putamen after 12.5 mins postinjection; format: ADME, organism-based, Macaca fascicularis; parameters: unit not given here; settings: in vivo
[18] = Ratio of drug uptake in frontal lobe to cerebellum in awake rhesus monkey after 35 mins postinjection; format: ADME, organism-based, Macaca mulatta; settings: in vivo
Pons [19] = experiment: Drug uptake in anesthetized cynomolgus monkey brain pons after 135 mins postinjection; format: ADME, organism-based, Macaca fascicularis; settings: in vivo, 2.25 h
Thalamus [20] = experiment: Drug uptake in anesthetized cynomolgus monkey brain thalamus after 235 mins postinjection; format: ADME, organism-based, Macaca fascicularis; parameters: unit not given here; settings: in vivo
Midbrain [21] = experiment: Drug uptake in anesthetized cynomolgus monkey brain midbrain after 27.5 mins postinjection; format: ADME, organism-based, Macaca fascicularis; parameters: unit not given here; settings: in vivo
[22] = Drug uptake in awake rhesus monkey brain cerebellum after 25 mins postinjection; format: ADME, organism-based, Macaca mulatta; settings: in vivo
Midbrain [23] = experiment: Drug uptake in anesthetized cynomolgus monkey brain midbrain after 55 mins postinjection; format: ADME, organism-based, Macaca fascicularis; parameters: unit not given here; settings: in vivo
[24] = Drug uptake in awake rhesus monkey brain thalamus after 65 mins postinjection; format: ADME, organism-based, Macaca mulatta; settings: in vivo
[25] = Drug uptake in awake rhesus monkey brain caudate after 4.5 mins postinjection; format: ADME, organism-based, Macaca mulatta, Caudate nucleus; settings: in vivo, 0.075 h
Medulla [26] = experiment: Drug uptake in anesthetized cynomolgus monkey brain medulla after 0.5 mins postinjection; format: ADME, organism-based, Macaca fascicularis; settings: in vivo
Putamen [27] = experiment: Drug uptake in anesthetized cynomolgus monkey brain putamen after 1.5 mins postinjection; format: ADME, organism-based, Macaca fascicularis; settings: in vivo, 0.025 h
Thalamus [28] = experiment: Drug uptake in anesthetized cynomolgus monkey brain thalamus after 115 mins postinjection; format: ADME, organism-based, Macaca fascicularis; parameters: unit not given here; settings: in vivo
Thalamus [29] = experiment: Drug uptake in anesthetized cynomolgus monkey brain thalamus after 15.5 mins postinjection; format: ADME, organism-based, Macaca fascicularis; parameters: unit not given here; settings: in vivo
[30] = Drug uptake in awake rhesus monkey brain cerebellum after 45 mins postinjection; format: ADME, organism-based, Macaca mulatta; settings: in vivo, 0.75 h
Midbrain [31] = experiment: Drug uptake in anesthetized cynomolgus monkey brain midbrain after 2.5 mins postinjection; format: ADME, organism-based, Macaca fascicularis; parameters: unit not given here; settings: in vivo
Medulla [32] = experiment: Drug uptake in anesthetized cynomolgus monkey brain medulla after 1.5 mins postinjection; format: ADME, organism-based, Macaca fascicularis; settings: in vivo, 0.025 h
Putamen [33] = experiment: Drug uptake in anesthetized cynomolgus monkey brain putamen after 235 mins postinjection; format: ADME, organism-based, Macaca fascicularis; settings: in vivo
[34] = Ratio of drug uptake in putamen to cerebellum in anesthetized cynomolgus monkey after 45 mins postinjection; format: ADME, organism-based, Macaca fascicularis; settings: in vivo, 0.75 h
Putamen [35] = experiment: Drug uptake in anesthetized cynomolgus monkey brain putamen after 185 mins postinjection; format: ADME, organism-based, Macaca fascicularis; settings: in vivo
[36] = Ratio of drug uptake in occipital lobe to cerebellum in anesthetized cynomolgus monkey after 12.5 mins postinjection; format: ADME, organism-based, Macaca fascicularis; settings: in vivo
Midbrain [37] = experiment: Drug uptake in anesthetized cynomolgus monkey brain midbrain after 35 mins postinjection; format: ADME, organism-based, Macaca fascicularis; parameters: unit not given here; settings: in vivo
[38] = Ratio of drug uptake in medulla to cerebellum in anesthetized cynomolgus monkey after 165 mins postinjection; format: ADME, organism-based, Macaca fascicularis; settings: in vivo, 2.75 h
[39] = Ratio of drug uptake in midbrain to cerebellum in anesthetized cynomolgus monkey after 235 mins postinjection; format: ADME, organism-based, Macaca fascicularis; settings: in vivo
Pons [40] = experiment: Drug uptake in anesthetized cynomolgus monkey brain pons after 85 mins postinjection; format: ADME, organism-based, Macaca fascicularis; settings: in vivo
[41] = Drug uptake in anesthetized cynomolgus monkey brain cerebellum after 205 mins postinjection; format: ADME, organism-based, Macaca fascicularis; settings: in vivo
[42] = Ratio of drug uptake in midbrain to cerebellum in anesthetized cynomolgus monkey after 215 mins postinjection; format: ADME, organism-based, Macaca fascicularis; settings: in vivo
Putamen [43] = experiment: Drug uptake in anesthetized cynomolgus monkey brain putamen after 2.5 mins postinjection; format: ADME, organism-based, Macaca fascicularis; settings: in vivo
Thalamus [44] = experiment: Drug uptake in anesthetized cynomolgus monkey brain thalamus after 55 mins postinjection; format: ADME, organism-based, Macaca fascicularis; parameters: unit not given here; settings: in vivo
Thalamus [45] = experiment: Drug uptake in anesthetized cynomolgus monkey brain thalamus after 145 mins postinjection; format: ADME, organism-based, Macaca fascicularis; parameters: unit not given here; settings: in vivo
[46] = Drug uptake in anesthetized cynomolgus monkey brain frontal lobe after 35 mins postinjection; format: ADME, organism-based, Macaca fascicularis; settings: in vivo

SMILES: O=C(OCC[18F])C1C2CCC(CC1c1ccc(/C=C\I)cc1)N2 (stereo unspecified)
- Ratio [1]: 0.7
- Drug uptake (Caudate [2]): 3.05
- Drug uptake [3]: 1.82
- Ratio [4]: 2.5
- Drug uptake (Medulla [5]): 3.32
- Ratio [6]: 1
- Drug uptake [7]: 1.3
- Ratio [8]: 1.3
- Ratio [9]: 3.8
- Drug uptake [10]: 2.76
- Ratio [11]: 1.6
- Drug uptake (Medulla [12]): 3.3
- Drug uptake (Caudate [13]): 1.47
- Drug uptake (Putamen [14]): 4.34
- Drug uptake [15]: 2.48
- Drug uptake [16]: 1.6
- Drug uptake (Putamen [17]): 2.59
- Ratio [18]: 1
- Drug uptake (Pons [19]): 3.6
- Drug uptake (Thalamus [20]): 3.34
- Drug uptake (Midbrain [21]): 3.19
- Drug uptake [22]: 2.12
- Drug uptake (Midbrain [23]): 4.01
- Drug uptake [24]: 3.48
- Drug uptake [25]: 1.17
- Drug uptake (Medulla [26]): 0
- Drug uptake (Putamen [27]): 0.11
- Drug uptake (Thalamus [28]): 4.06
- Drug uptake (Thalamus [29]): 2.54
- Drug uptake [30]: 1.93
- Drug uptake (Midbrain [31]): 0.4
- Drug uptake (Medulla [32]): 0.14
- Drug uptake (Putamen [33]): 3.83
- Ratio [34]: 1.4
- Drug uptake (Putamen [35]): 4.01
- Ratio [36]: 0.8
- Drug uptake (Midbrain [37]): 3.51
- Ratio [38]: 2.6
- Ratio [39]: 4.4
- Drug uptake (Pons [40]): 3.38
- Drug uptake [41]: 1.22
- Ratio [42]: 3.9
- Drug uptake (Putamen [43]): 0.45
- Drug uptake (Thalamus [44]): 3.78
- Drug uptake (Thalamus [45]): 3.98
- Drug uptake [46]: 1.86
